The values that follow come from ChEMBL document CHEMBL1909046, “DrugMatrix in vitro pharmacology data”.

For orientation: IC50 means the concentration that inhibits the measured activity by half.

For experiment [1], the target named is T1, Vasoactive intestinal polypeptide receptor 1 (Homo sapiens, UniProt P32241). Also: in other assays of this panel Not Active means under 50% inhibition at 10 µM.
T1 sequence (P32241 whole entry): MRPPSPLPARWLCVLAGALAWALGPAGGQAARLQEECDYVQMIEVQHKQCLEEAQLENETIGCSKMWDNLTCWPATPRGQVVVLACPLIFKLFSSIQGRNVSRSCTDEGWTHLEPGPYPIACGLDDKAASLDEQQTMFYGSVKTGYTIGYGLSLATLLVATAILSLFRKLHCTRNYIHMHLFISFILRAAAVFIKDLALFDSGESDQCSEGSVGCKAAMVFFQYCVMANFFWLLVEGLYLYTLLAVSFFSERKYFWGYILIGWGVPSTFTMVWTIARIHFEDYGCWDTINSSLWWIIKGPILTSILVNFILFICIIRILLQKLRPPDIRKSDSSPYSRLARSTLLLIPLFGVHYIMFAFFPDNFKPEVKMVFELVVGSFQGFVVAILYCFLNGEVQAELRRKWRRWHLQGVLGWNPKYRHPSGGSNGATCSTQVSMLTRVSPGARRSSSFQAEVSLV
Type of experiment: cell membranes, Membrane. Conditions: ht-29.

For experiment [2], the target named is T2, C-X-C chemokine receptor type 1 (Homo sapiens, UniProt P25024). Also: in other assays of this panel Not Active means under 50% inhibition at 10 µM.
T2 sequence (P25024 whole entry): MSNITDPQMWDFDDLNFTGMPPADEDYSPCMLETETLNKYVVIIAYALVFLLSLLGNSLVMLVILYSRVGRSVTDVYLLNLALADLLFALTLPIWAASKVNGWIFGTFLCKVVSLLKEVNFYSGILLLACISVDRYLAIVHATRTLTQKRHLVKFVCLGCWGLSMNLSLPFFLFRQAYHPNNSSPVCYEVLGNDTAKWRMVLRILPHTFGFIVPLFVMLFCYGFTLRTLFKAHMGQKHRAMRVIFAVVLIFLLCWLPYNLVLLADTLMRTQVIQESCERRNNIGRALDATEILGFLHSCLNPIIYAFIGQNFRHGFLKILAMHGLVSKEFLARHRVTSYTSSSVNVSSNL

For experiment [3], the target named is T3, Cholecystokinin receptor type A (Homo sapiens, UniProt P32238). Also: in other assays of this panel Not Active means under 50% inhibition at 10 µM.
T3 sequence (P32238 whole entry): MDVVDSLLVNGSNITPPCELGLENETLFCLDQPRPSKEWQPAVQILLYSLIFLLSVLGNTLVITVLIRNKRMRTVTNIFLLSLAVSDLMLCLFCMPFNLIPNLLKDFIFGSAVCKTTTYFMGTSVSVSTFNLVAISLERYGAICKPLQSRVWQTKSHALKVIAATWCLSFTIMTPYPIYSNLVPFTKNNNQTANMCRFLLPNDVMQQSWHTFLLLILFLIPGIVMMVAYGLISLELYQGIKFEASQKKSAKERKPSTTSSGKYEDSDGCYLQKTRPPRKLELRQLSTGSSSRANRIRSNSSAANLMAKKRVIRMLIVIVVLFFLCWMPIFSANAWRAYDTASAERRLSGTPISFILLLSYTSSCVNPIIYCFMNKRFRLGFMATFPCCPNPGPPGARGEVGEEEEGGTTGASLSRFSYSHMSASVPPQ
Type of experiment: cell membranes, Membrane. Conditions: 1321-n1.

Experiment [4] is described as follows: DRUGMATRIX: Platelet-Derived Growth Factor (PDGF) radioligand binding (ligand: [125I] PDGF). Type of experiment: cell-based. Conditions: nih3t3; Not Active = under 50% inhibition at 10 µM.
In experiment [5] the target is Receptor tyrosine-protein kinase erbB-2 (Homo sapiens, UniProt P04626). The experiment can be described thus: biochemical. The following applies: insect cells. Type of experiment: cell-based, Insect cells.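 Also: inhibition of HER2 kinase enzyme activity, measured with Poly(Glu:Tyr) as the phosphorylation substrate; in other assays of this panel Not Active means under 50% inhibition at 10 µM.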
For experiment [6], the target named is Tyrosine-protein kinase Lck (Homo sapiens, UniProt P06239). The experiment can be described thus: DRUGMATRIX: Protein Tyrosine Kinase, LCK enzyme inhibition (substrate: Poly(Glu:Tyr)). Conditions: Not Active = under 50% inhibition at 10 µM. Type of experiment: cell-based, Insect cells.
Chain of Tyrosine-protein kinase Lck (P06239 whole entry): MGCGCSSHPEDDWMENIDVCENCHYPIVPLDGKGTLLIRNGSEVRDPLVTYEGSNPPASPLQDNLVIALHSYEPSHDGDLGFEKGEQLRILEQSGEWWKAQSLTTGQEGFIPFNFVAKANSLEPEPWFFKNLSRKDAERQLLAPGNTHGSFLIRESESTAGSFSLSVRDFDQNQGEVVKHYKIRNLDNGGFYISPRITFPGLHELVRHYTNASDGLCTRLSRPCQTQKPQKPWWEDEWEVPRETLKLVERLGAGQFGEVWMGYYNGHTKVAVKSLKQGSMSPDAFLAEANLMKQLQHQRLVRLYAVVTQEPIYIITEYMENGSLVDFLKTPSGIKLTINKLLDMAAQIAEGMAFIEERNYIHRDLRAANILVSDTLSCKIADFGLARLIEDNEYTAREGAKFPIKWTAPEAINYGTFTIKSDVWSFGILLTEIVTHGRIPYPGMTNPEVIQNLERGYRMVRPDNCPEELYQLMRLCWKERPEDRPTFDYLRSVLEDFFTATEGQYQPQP
Another experiment concerns the target T4, Estrogen receptor (Homo sapiens, UniProt P03372). Also: in other assays of this panel Not Active means under 50% inhibition at 10 µM.
T4 sequence (P03372 whole entry): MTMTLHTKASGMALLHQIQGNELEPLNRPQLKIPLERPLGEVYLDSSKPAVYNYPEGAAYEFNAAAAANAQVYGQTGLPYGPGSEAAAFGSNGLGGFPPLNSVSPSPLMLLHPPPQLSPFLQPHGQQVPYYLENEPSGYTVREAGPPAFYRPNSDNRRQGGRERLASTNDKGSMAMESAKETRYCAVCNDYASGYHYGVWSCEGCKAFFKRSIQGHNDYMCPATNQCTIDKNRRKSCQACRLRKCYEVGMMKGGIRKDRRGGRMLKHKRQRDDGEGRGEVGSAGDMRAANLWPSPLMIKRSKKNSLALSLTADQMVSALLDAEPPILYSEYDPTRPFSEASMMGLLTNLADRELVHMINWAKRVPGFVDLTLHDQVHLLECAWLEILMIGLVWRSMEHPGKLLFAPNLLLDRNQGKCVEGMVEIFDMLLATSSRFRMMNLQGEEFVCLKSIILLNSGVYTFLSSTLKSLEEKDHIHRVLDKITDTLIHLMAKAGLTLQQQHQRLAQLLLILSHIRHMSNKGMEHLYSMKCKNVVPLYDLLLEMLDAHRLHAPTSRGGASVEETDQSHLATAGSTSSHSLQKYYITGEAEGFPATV
Conditions: sf9.

The next experiment deals with T5, Glucocorticoid receptor (Homo sapiens, UniProt P04150).
T5 sequence (P04150 whole entry): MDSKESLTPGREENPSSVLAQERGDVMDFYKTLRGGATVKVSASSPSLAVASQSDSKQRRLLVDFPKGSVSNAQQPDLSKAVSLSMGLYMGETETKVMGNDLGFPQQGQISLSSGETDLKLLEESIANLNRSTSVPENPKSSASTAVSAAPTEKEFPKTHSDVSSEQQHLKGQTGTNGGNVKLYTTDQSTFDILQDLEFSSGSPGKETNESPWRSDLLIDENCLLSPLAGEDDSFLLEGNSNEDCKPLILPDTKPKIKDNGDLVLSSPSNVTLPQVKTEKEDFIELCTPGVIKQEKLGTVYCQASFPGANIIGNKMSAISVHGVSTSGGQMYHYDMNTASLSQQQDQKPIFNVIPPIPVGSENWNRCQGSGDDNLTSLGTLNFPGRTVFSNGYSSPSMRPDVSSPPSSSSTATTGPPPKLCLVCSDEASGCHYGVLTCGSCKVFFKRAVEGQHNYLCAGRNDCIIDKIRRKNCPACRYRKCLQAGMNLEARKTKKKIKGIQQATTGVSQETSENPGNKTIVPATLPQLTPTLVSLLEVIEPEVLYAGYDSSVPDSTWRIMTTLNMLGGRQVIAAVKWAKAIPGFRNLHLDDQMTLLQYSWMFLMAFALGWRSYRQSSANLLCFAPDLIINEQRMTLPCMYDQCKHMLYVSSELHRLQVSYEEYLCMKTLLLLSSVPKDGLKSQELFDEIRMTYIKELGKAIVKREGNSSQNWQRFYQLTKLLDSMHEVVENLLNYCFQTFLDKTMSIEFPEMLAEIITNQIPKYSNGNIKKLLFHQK
The following applies: hela s3.

Take `CN1C(C(=O)Nc2ccccn2)=C(O)c2ccccc2S1(=O)=O` [PIROXICAM]: the IC50 entry in experiment [1], in experiment [2], in experiment [3], in experiment [4], in experiment [5] and in experiment [6] (insect cells) was “Not Active” each time. Further, the IC50 result against Estrogen receptor and against Glucocorticoid receptor was “Not Active” throughout. Moreover, in experiment [4], the Ki result is recorded as “Not Active”.
With `C=C1[C@@H]2CCC3[C@@](CC[C@@H]4[C@H](C(=O)O)C[C@@H](O[C@@H]5O[C@H](CO)[C@@H](OS(=O)(=O)[O-])[C@H](OS(=O)(=O)[O-])[C@H]5OC(=O)CC(C)C)C[C@@]34C)(C2)[C@@H]1O.[K+].[K+]` (stereo partly drawn) [ATRACTYLOSIDE], the IC50 entry in experiment [1], in experiment [2], in experiment [3], in experiment [4], in experiment [5] and in experiment [6] (insect cells) was “Not Active” throughout. Further, the IC50 result against Estrogen receptor and on Glucocorticoid receptor was “Not Active” throughout. Further, the Ki entry in experiment [4] was “Not Active”.
Take CARBOPLATIN: the IC50 entry in experiment [1], in experiment [2], in experiment [3], in experiment [4], in experiment [5] and in experiment [6] (insect cells) was “Not Active” each time. The IC50 entry against Estrogen receptor and against Glucocorticoid receptor was “Not Active” each time. The Ki entry in experiment [1], in experiment [2], in experiment [3], in experiment [4], in experiment [5] and in experiment [6] (insect cells) was “Not Active” in each case. Moreover, the Ki result at Estrogen receptor and at Glucocorticoid receptor was “Not Active” each time.
As for `Cn1cnc([N+](=O)[O-])c1Sc1ncnc2nc[nH]c12` [AZATHIOPRINE], the IC50 entry in experiment [1], in experiment [2], in experiment [3], in experiment [4], in experiment [5] and in experiment [6] (insect cells) was “Not Active” in each case. The IC50 entry against Estrogen receptor and on Glucocorticoid receptor was “Not Active” in each case. Also, the Ki result in experiment [4] was “Not Active”.
`NCC[C@H](O)C(=O)N[C@@H]1C[C@H](N)[C@@H](O[C@H]2O[C@H](CN)[C@@H](O)[C@H](O)[C@H]2O)[C@H](O)[C@H]1O[C@H]1O[C@H](CO)[C@@H](O)[C@H](N)[C@H]1O` [AMIKACIN]: the IC50 result in experiment [1], in experiment [2], in experiment [3], in experiment [4], in experiment [5] and in experiment [6] (insect cells) was “Not Active” in each case. Further, the half-maximal inhibitory concentration (IC50) entry against Estrogen receptor and against Glucocorticoid receptor was “Not Active” throughout. Also, the Ki entry in experiment [4] is “Not Active”.
For the compound `CN1C[C@H](C(=O)N[C@]2(C)O[C@@]3(O)[C@@H]4CCCN4C(=O)[C@H](Cc4ccccc4)N3C2=O)C=C2c3cccc4[nH]cc(c34)C[C@H]21` [ERGOTAMINE], the IC50 result was “Not Active” in experiment [1]; “Not Active” in experiment [2]; “Not Active” in experiment [3]; “Not Active” in experiment [4]; “Not Active” in experiment [5]; 6.5 µM in experiment [6] (read-out: IC50). Moreover, the IC50 result against Estrogen receptor and at Glucocorticoid receptor was “Not Active” each time. The Ki result in experiment [4] is “Not Active”.
For `CN(C)[C@@H]1C(O)=C(C(N)=O)C(=O)[C@@]2(O)C(O)=C3C(=O)c4c(O)cccc4[C@@](C)(O)[C@H]3[C@H](O)[C@@H]12` [OXYTETRACYCLINE], the IC50 result in experiment [1], in experiment [2], in experiment [3], in experiment [4], in experiment [5] and in experiment [6] (insect cells) was “Not Active” throughout. In addition, the IC50 entry on Estrogen receptor and against Glucocorticoid receptor was “Not Active” each time. The Ki result in experiment [4] is given as “Not Active”.
With `CC(=O)CCCCn1c(=O)c2c(ncn2C)n(C)c1=O` [PENTOXIFYLLINE], the IC50 result in experiment [1], in experiment [2], in experiment [3], in experiment [4], in experiment [5] and in experiment [6] (insect cells) was “Not Active” throughout. For the same compound, the IC50 result against Estrogen receptor and against Glucocorticoid receptor was “Not Active” in each case. Also, the Ki result in experiment [4] is listed as “Not Active”.
As for `O=C1CN=C(c2ccccc2)c2cc([N+](=O)[O-])ccc2N1` [NITRAZEPAM], the IC50 result in experiment [1], in experiment [2], in experiment [3], in experiment [4], in experiment [5] and in experiment [6] (insect cells) was “Not Active” in each case. Further, the IC50 entry on Estrogen receptor and against Glucocorticoid receptor was “Not Active” throughout. Moreover, the Ki result in experiment [4] is given as “Not Active”.
